The record followed here is publication PMC8305076, “Comprehensive Evaluation of Biological Effects of Pentathiepins on Various Human Cancer Cell Lines and Insights into Their Mode of Action” (International Journal of Molecular Sciences, 2021).

The structures appear in SMILES notation. Like-named read-outs stand apart in the source and are kept apart here.

Holding throughout (assay type): cell-based, human
One assay concerns MCF-7. Put plainly: crystal violet proliferation assay. Particulars: normoxia, read-out: GI50 CV mean. The protocol:
Distinct MTT cell viability and crystal violet cell proliferation assays were performed to assess the cytotoxicity of the compounds 1–6 on 14 human cancer cell lines. In the viability assay, cells with intact mitochondria and thus active dehydrogenases are competent to convert MTT to the corresponding insoluble formazan. The formazan can be photometrically detected after solubilization and allows for indirect conclusions about the viability of the cells as an IC50 value. In the crystal violet assay, cells are stained by the binding of the dye to the chromatin, thus allowing for a quantification of biomass that remains adherent after a treatment in comparison with a control after a specific time. Potency is defined as the growth inhibitory concentration 50% (GI50).
The antiproliferative effect of the pentathiepins on human cancer cell lines was analyzed by crystal violet assay based on the protocol of a previous publication. […] After dissolving in ethanol, the optical density was measured. Here, 1000 cells (250 for LCLC-103H) in 0.1 mL of medium were seeded per well of a 96 well plate and incubated at standard conditions for 24 h prior to treatment to allow for adhesion of the cells. A serial dilution of the test compounds was prepared in medium, covering final concentrations from 10.0 to 0.04 µM and 0.1 mL of the working solution added to each well in triplicate. Additionally, samples for each cell line were seeded and directly fixed after 24 h to measure the cell density at the beginning of treatment (t0). Fixation was performed by replacing medium with 0.1 mL of a solution containing 1% glutaraldehyde in Dulbecco’s buffer (0.2 g/L KCl, 0.1 g/L MgSO4·7 H2O, 1.55 g/L Na2HPO4·7 H2O, 0.2 g/L KH2HPO4, and 8 g/L NaCl in water) for 20 min. Plates were stored in 0.1 mL of Dulbecco’s buffer until further processing. After 96 h of treatment, the same fixation process was applied to the plates containing cells and test compounds. To stain the cells, 0.1 mL of an aqueous solution of crystal violet (0.02%) was added per well for 20 min, then discarded and the plates afterwards rinsed in clear water for 30 min. The dye was extracted in 50 µL of ethanol per well during 2 h of shaking. The plates were read at λ = 570 nm using a SpectraMax 384plus (Molecular Devices, Sunnyvale, CA, USA), and the proliferation of the treatment conditions was calculated in relation to a solvent control sample after subtracting the background value of the T0-plates. The GI50 (half-maximal growth inhibitory concentration) was calculated via nonlinear regression followed by interpolation of the dose–response graphs in Prism 7 (GraphPad, San Diego, CA, USA).

Assay [1] deals with HAP-1, HAP-1.KO.GPx1, and Siso. Nature of the assay: alkaline Comet assay (summary). More on the design: key: no impact (0); weak impact (+); strong impact (++). Particulars: summary grade. The source says:
Next, the potential of the pentathiepins 1–6 to damage nuclear DNA was investigated in the cell lines HAP-1, HAP-1.KO.GPx1, and Siso, with different expression levels of GPx1 and CAT (see Figure 7), by Comet Assay (Figure 12) with representative images in the Supplementary Materials (Figure S48).
With this assay, the intensity of DNA damage can be assessed on the level of a single cell, in case of the alkaline version detecting both single and double strand breaks as well as alkali-labile sites. The method presented here is an adaptation of the protocol published by Olive and Banath and based on the distinct electrophoretic mobility of damaged and intact genomic DNA. The latter has a low mobility; does thus not migrate in the electric field; and remains in a nucleoid shape after lysis, referred to as the comet head. In contrast, when strand breaks are created, free charged ends emerge and increase the electrophoretic mobility, prompting DNA segments to drift away from the comet head, thereby forming the so-called comet tail. As descriptor of still intact genomic DNA, the percentage of DNA in the comet head was selected. Per condition, 50,000 cells of either Siso, HAP-1, or HAP-1.KO.GPx1 were diluted in 1 mL of PBS and subsequently treated with either a 1% DMF aqueous solution as negative control, 20 µM of H2O2 as positive control, or 25 µM of pentathiepin for 15 min on ice to impair intracellular DNA repair mechanisms. Afterwards, 400 µL of the cell suspension was blended with 1.2 mL of a 1% low melting point agarose solution (40 °C) and smoothly distributed on agarose-precoated glass slides. Polymerization was finished after 3 min at RT, and the slides were horizontally submerged in alkaline lysis buffer (1.2 M NaCl, 0.1% N-lauryl-sarcosinate, 0.1 M Na-EDTA, 0.26 M NaOH) before storing them at 4 °C overnight. The slides were then rinsed three times in rinse/electrophoresis buffer (0.002 M Na-EDTA, 0.03 M NaOH) before electrophoretic separation was performed for 25 min at 0.6 V/cm. A neutralization step by adding distilled water was followed by staining the slides with 250 µL of an aqueous 10 µg/mL PI solution for 20 min. For visualization and image capturing, a DMi8 fluorescent microscope and LASX software (Leica Microsystems, Wetzlar, Germany) were used, and the comets scored with the help of CometScore2.0 (rexhoover.com). Per condition and replicate, at least 100 comets were analyzed to calculate a mean level of damage.

In another assay the test system is seven cancer cell lines. Nature of the assay: DCFDA flow cytometric ROS assay, acute. Particulars: 25 µM, 15 min, vs solvent control. In general terms: Flow cytometry measures light scatter and fluorescence of single cells or particles in a stream.

`CCOc1c2c(c3ccc(C(=O)N(CC)CC)cn13)SSSSS2` [Compound 4, 6-Ethoxy-N,N’-diethyl-[1,2,3,4,5]pentathiepino[6,7-a]indolizine-9-carboxamide]: in the assay with MCF-7 (Homo sapiens, MCF7, 96 h), the GI50 (usually the concentration at which growth is held to half of that of the control) worked out at 293 nM. Further, in assay [1], the Comet formation entry is listed as “++”. In the assay with seven cancer cell lines, the “intracellular ROS levels” value is “burst of ROS in all cell lines”.

On to `CCOc1c2c(c3ccc(C(=O)N4CCN(C(=O)c5ccc(F)cc5)CC4)cn13)SSSSS2` [Compound 5, (6-Ethoxy-[1,2,3,4,5]pentathiepino[6,7-a]indolizin-9-yl)(4-(4-fluorobenzoyl)piperazinyl)methanone], for which the 50% growth inhibitory concentration (GI50) in the assay with MCF-7 (Homo sapiens, MCF7, 96 h) is 248 nM. The Comet formation entry in assay [1] is “++”. Besides, in the assay with seven cancer cell lines, the “intracellular ROS levels” value was “burst of ROS in all cell lines”.

Take `CCOc1c2c(c3cnc4[nH]c(-c5ccc(OC)cc5)cc4n13)SSSSS2` [Compound 1, 11-Ethoxy-2-(4-methoxyphenyl)-3H-[1,2,3,4,5]pentathiepino[6′,7′:3,4]pyrrolo[1,2-a]pyrrolo[2,3-e]pyrazine]: the GI50 was found to be 209 nM with MCF-7 (96 h) and 210 nM in the assay with MCF-7 (Homo sapiens, MCF7, 96 h). In assay [1], the Comet formation result is recorded as “+”. Besides, the “intracellular ROS levels” value with seven cancer cell lines is given as “did not change the intracellular ROS levels in any of the cell lines”.

As to `CCOc1c2c(c3ccc(C(=O)N4CCOCC4)cn13)SSSSS2` [Compound 3, (6-Ethoxy-[1,2,3,4,5]pentathiepino[6,7-a]indolizin-9-yl)(morpholino)methanone], in the assay on MCF-7 (Homo sapiens, MCF7, 96 h), the GI50 was found to be 153 nM. Further, the Comet formation result in assay [1] is “++”. Further, the “intracellular ROS levels” value with seven cancer cell lines was “burst of ROS in all cell lines”.

For the compound `CCOc1c2c(c3ccc(C(=O)N4CCN(S(=O)(=O)c5ccc(C)cc5)CC4)cn13)SSSSS2` [Compound 6, (6-Ethoxy-[1,2,3,4,5]pentathiepino[6,7-a]indolizin-9-yl)(4-tosylpiperazinyl)methanone], the GI50 in the assay on MCF-7 (Homo sapiens, MCF7, 96 h) turned out to be 458 nM. Also, the Comet formation result in assay [1] is on record as “+”. Further, in the assay with seven cancer cell lines, the “intracellular ROS levels” value is on record as “only in three of the panel”.

With `CCOc1c2c(c3ccc(C(=O)N4CCCCC4)cn13)SSSSS2` [Compound 2, (6-Ethoxy-[1,2,3,4,5]pentathiepino[6,7-a]indolizin-9-yl)(piperidinyl)methanone], the GI50 in the assay on MCF-7 (Homo sapiens, MCF7, 96 h) was found to be 384 nM. Besides, the Comet formation entry in assay [1] is listed as “+”. Besides, the “intracellular ROS levels” value in the assay on seven cancer cell lines was “burst of ROS in all cell lines”.
